Results from patent US11312719B2, “9-substituted amino triazolo quinazoline derivatives as adenosine receptor antagonists, pharmaceutical compositions and their use” (Merck Sharp & Dohme Corp., priority 2018, dated 2022).

Assays:
[1] = biological target: human A2a adenosine receptor (Homo sapiens (Human), UniProt P29274); assay: A2a receptor affinity radioligand binding assay ([3H] SCH58261); settings: membranes from HEK293 or CHO cells expressing human A2a receptor
Outline: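 IC50 values come from 4-parameter logistic fits of filter-bound radioactivity, normalized to total (1% DMSO) and nonspecific (1 μM ZM241385) binding. Recombinant human A2a membranes (HEK293 or CHO) were exposed to compound for 15–30 min, then to [3H]SCH58261 (4 nM working dilution) for 60 min at room temperature in Tris pH 7.4/MgCl2/Tween20 buffer.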

[2] = biological target: human A2b adenosine receptor (Homo sapiens (Human), UniProt P29275); assay: A2b radioligand filtration binding assay; settings: membranes from HEK293 cells expressing human A2b receptor
Outline: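 Displacement of a tritiated A2b antagonist (working solution 14 nM) from human A2b receptor membranes of recombinant HEK293 cells, in Mg/Ca-free PBS pH 7.4, 60 min at room temperature after 15 to 30 min compound preincubation. Filtered, counted; normalized to total and 20 μM NECA non-specific binding; IC50 from logistic fit.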

Sequence of human A2a adenosine receptor (P29274 whole entry): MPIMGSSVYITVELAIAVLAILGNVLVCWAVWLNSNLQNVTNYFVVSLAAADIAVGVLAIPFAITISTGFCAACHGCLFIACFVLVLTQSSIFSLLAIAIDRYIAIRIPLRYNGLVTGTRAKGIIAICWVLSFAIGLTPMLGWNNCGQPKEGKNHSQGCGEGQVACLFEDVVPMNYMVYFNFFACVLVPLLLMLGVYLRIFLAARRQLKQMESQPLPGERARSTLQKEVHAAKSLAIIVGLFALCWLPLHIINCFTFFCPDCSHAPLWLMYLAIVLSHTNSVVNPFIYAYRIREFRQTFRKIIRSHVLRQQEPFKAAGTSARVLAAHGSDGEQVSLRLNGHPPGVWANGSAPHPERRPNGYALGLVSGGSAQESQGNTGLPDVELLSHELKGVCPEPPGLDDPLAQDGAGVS
Sequence of human A2b adenosine receptor (P29275 whole entry): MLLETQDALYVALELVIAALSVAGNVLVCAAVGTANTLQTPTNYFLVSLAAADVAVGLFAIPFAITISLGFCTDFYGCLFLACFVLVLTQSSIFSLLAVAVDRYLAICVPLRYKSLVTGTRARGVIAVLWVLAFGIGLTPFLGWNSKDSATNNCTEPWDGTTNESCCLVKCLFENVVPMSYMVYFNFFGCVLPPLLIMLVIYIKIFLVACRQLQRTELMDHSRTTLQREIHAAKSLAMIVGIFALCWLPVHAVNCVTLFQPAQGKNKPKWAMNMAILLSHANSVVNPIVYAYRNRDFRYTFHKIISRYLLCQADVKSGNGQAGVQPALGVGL

SMILES	IC50 [1] [nM]	IC50 [2] [nM]
COc1cc2nc(N)n3nc([C@@H]4CCCN(c5cc(C)c(=O)n(C(F)F)c5)C4)nc3c2cc1F [Example 25, (R)-5-(3-(5-amino-9-fluoro-8-methoxy-[1,2,4]triazolo[1,5-c]quinazolin-2-yl)piperidin-1-yl)-1-(difluoromethyl)-3-methylpyridin-2(1H)-one]	0.6	61.7
COc1cc2nc(N)n3nc([C@@H]4CCCN(c5cnn([C@@H]6CC[C@@]6(C)O)c5)C4)nc3c2cc1F (single isomer, unassigned) [Example 99, (1R or 1S,2R or 2S)-2-(4-((R)-3-(5-amino-9-fluoro-8-methoxy-[1,2,4]triazolo[1,5-c]quinazolin-2-yl)piperidin-1-yl)-1H-pyrazol-1-yl)-1-methylcyclobutan-1-ol]	4.4	231
COc1cc2nc(N)n3nc([C@H]4CN(c5cn(CC(C)(C)O)nc5C)CCO4)nc3c2cc1F [Example 140, (R)-1-(4-(2-(5-amino-9-fluoro-8-methoxy-[1,2,4]triazolo[1,5-c]quinazolin-2-yl)morpholino)-3-methyl-1H-pyrazol-1-yl)-2-methylpropan-2-ol]	0.8	2720
COc1cc2nc(N)n3nc(C4CCC(C)N(c5cnn(C6CCCC6O)c5)C4)nc3c2cc1F (single isomer, unassigned) [Example 88, (1R or 1S,2R or 2S)-2-(4-((2S,5R or 2R,5S)-5-(5-amino-9-fluoro-8-methoxy-[1,2,4]triazolo[1,5-c]quinazolin-2-yl)-2-methylpiperidin-1-yl)-1H-pyrazol-1-yl)cyclopentan-1-ol]	0.1	1.8
COc1cc2nc(N)n3nc(C4CCC(C)N(c5cnn(C(C)(C)C(C)(C)O)c5)C4)nc3c2cc1F (single isomer, unassigned) [Example 43, 3-(4-((2S,5R or 2R,5S)-5-(5-amino-9-fluoro-8-methoxy-[1,2,4]triazolo[1,5-c]quinazolin-2-yl)-2-methylpiperidin-1-yl)-1H-pyrazol-1-yl)-2,3-dimethylbutan-2-ol]	0.7	3.4
Cn1cc(N2CCCC(c3nc4c5cc(Cl)ccc5nc(N)n4n3)C2)cn1 (single isomer, unassigned) [Example 106, (R or S)-9-chloro-2-(1-(1-methyl-1H-pyrazol-4-yl)piperidin-3-yl)-[1,2,4]triazolo[1,5-c]quinazolin-5-amine]	316	430
COc1cc2nc(N)n3nc([C@@H]4CCCN(c5cnn(CC6(O)CCC6)c5)C4)nc3c2cc1F [Example 10, (R)-1-((4-(3-(5-amino-9-fluoro-8-methoxy-[1,2,4]triazolo [1,5-c]quinazolin-2-yl)piperidin-1-yl)-1H-pyrazol-1-yl)methyl)cyclobutan-1-ol]	3.5	63.4
COc1cc(F)cc2c1nc(N)n1nc(C3CC(F)CN(c4cnn(CC5(O)CCC5)c4)C3)nc21 (single isomer, unassigned) [Example 78, 1-(4-((3R,5R or 3S,5S)-3-(5-amino-9-fluoro-7-methoxy-[1,2,4]triazolo[1,5-c]quinazolin-2-yl)-5-fluoropiperidin-1-yl)-1H-pyrazol-1-yl)methyl)cyclobutan-1-ol]	0.9	234
COc1cc(F)cc2c1nc(N)n1nc(C3CCC(C)N(c4cnn(C(C)(C)CO)c4)C3)nc21 (single isomer, unassigned) [Example 124, 2-(4-((2R or 2S,5S or 5R)-5-(5-amino-9-fluoro-7-methoxy-[1,2,4]triazolo[1,5-c]quinazolin-2-yl)-2-methylpiperidin-1-yl)-1H-pyrazol-1-yl)-2-methylpropan-1-ol]	0.3	1.7
COc1cc(F)cc2c1nc(N)n1nc(C3CCC(C)N(c4cnn(C(C)(C)CO)c4)C3)nc21 (single isomer, unassigned) [Example 123, 2-(4-((2S or 2R,5S or 5R)-5-(5-amino-9-fluoro-7-methoxy-[1,2,4]triazolo[1,5-c]quinazolin-2-yl)-2-methylpiperidin-1-yl)-1H-pyrazol-1-yl)-2-methylpropan-1-ol]	0.3	422
COc1cc2nc(N)n3nc([C@H]4C[C@H](F)CN(c5cnn(CC(C)(C)O)c5)C4)nc3c2cc1F (single isomer, unassigned) [Example 81, 1-(4-((3S,5S or 3R,5R)-3-(5-amino-9-fluoro-8-methoxy-[1,2,4]triazolo[1,5-c]quinazolin-2-yl)-5-fluoropiperidin-1-yl)-1H-pyrazol-1-yl)-2-methylpropan-2-ol]	121	6580
COc1cc2nc(N)n3nc([C@@H]4CCCN(c5cn(C6CCOCC6)nc5C(F)F)C4)nc3c2cc1F [Example 19, (R)-2-(1-(3-(difluoromethyl)-1-(tetrahydro-2H-pyran-4-yl)-1H-pyrazol-4-yl)piperidin-3-yl)-9-fluoro-8-methoxy-[1,2,4]triazolo[1,5-c]quinazolin-5-amine]	0.7	87.3
COc1cc(F)cc2c1nc(N)n1nc([C@@H]3CCCN(c4cnn(C)c4)C3)nc21 [Example 100, (R)-9-fluoro-7-methoxy-2-(1-(1-methyl-1H-pyrazol-4-yl)piperidin-3-yl)-[1,2,4]triazolo[1,5-c]quinazolin-5-amine]	1.4	4.8
COc1cc2nc(N)n3nc([C@@H]4CCCN(c5cnn(CCCC(C)O)c5)C4)nc3c2cc1F (single isomer, unassigned) [Example 94, (S or R)-5-(4-((R)-3-(5-amino-9-fluoro-8-methoxy-[1,2,4]triazolo[1,5-c]quinazolin-2-yl)piperidin-1-yl)-1H-pyrazol-1-yl)pentan-2-ol]	7.8	752
COc1cc2nc(N)n3nc(C4CC(F)CN(c5cnn(CC(C)(C)O)c5)C4)nc3c2cc1F (single isomer, unassigned) [Example 55, 1-(4-((3R,5S or 3S,5R)-3-(5-amino-9-fluoro-8-methoxy-[1,2,4]triazolo[1,5-c]quinazolin-2-yl)-5-fluoropiperidin-1-yl)-1H-pyrazol-1-yl)-2-methylpropan-2-ol]	10.6	500
COc1cc(F)cc2c1nc(N)n1nc([C@@H]3CCCN(c4cn(CC(C)(C)O)nc4C)C3)nc21 [Example 30, (R)-1-(4-(3-(5-amino-9-fluoro-7-methoxy-[1,2,4]triazolo [1,5-c]quinazolin-2-yl)piperidin-l-yl)-3-methyl-1H-pyrazol-1-yl)-2-methylpropan-2-ol]	0.4	97.9
COc1cc2nc(N)n3nc([C@@H]4CCCN(c5cn(C(C)(C)CO)nc5C)C4)nc3c2cc1F [Example 11, (R)-2-(4-(3-(5-amino-9-fluoro-8-methoxy-[1,2,4]triazolo[1,5-c]quinazolin-2-yl)piperidin-1-yl)-3-methyl-1H-pyrazol-1-yl)-2-methylpropan-1-ol]	0.5	56
COc1cc2nc(N)n3nc(C4CCC(C)N(c5cn(CC(C)(C)O)nc5C)C4)nc3c2cc1F (single isomer, unassigned) [Example 42, 1-(4-((2S,5R or 2R,5S)-5-(5-amino-9-fluoro-8-methoxy-[1,2,4]triazolo[1,5-c]quinazolin-2-yl)-2-methylpiperidin-1-yl)-3-methyl-1H-pyrazol-1-yl)-2-methylpropan-2-ol]	4.3	476
COc1cc2nc(N)n3nc([C@@H]4CCCN(c5cnn([C@@H]6CCC[C@@]6(C)O)c5)C4)nc3c2cc1F (single isomer, unassigned) [Example 82, (1R or 1S,2R or 2S)-2-(4-((R)-3-(5-amino-9-fluoro-8-methoxy-[1,2,4]triazolo[1,5-c]quinazolin-2-yl)piperidin-1-yl)-1H-pyrazol-1-yl)-1-methylcyclopentan-1-ol]	4.9	63
COc1cc2nc(N)n3nc([C@@H]4CCCN(c5cnn(C6CCOCC6)c5C(F)F)C4)nc3c2cc1F [Example 18, (R)-2-(1-(5-(difluoromethyl)-1-(tettahydro-2H-pyran-4-yl)-1H-pyrazol-4-yl)piperidin-3-yl)-9-fluoro-8-methoxy-[1,2,4]triazolo[1,5-c]quinazolin-5-amine]	0.7	13.5
COc1cccc2c1nc(N)n1nc([C@@H]3CCC[C@](O)(c4cnn(CC(C)(C)O)c4)C3)nc21 (single isomer, unassigned) [Example 150, (1R,3R or 1S,3S)-3-(5-amino-7-methoxy-[1,2,4]triazolo[1,5-c]quinazolin-2-yl)-1-(1-(2-hydroxy-2-methylpropyl)-1H-pyrazol-4-yl)cyclohexan-1-ol]	1.4	181
COc1cc2nc(N)n3nc([C@H]4CC[C@@H](C)N(c5cn(CC6(O)CCC6)nc5C)C4)nc3c2cc1F (single isomer, unassigned) [Example 50, 1-((4-((2R,5S or 2S,5R)-5-(5-amino-9-fluoro-8-methoxy-[1,2,4]triazolo[1,5-c]quinazolin-2-yl)-2-methylpiperidin-1-yl)-3-methyl-1H-pyrazol-1-yl)methyl)cyclobutan-1-ol]	18.3	1890
CCn1cc([C@]2(O)CCC[C@H](c3nc4c5cc(F)c(OC)cc5nc(N)n4n3)C2)cn1 (single isomer, unassigned) [Example 147, (1S or 1R,3S or 3R)-3-(5-amino-9-fluoro-8-methoxy-[1,2,4]triazolo[1,5-c]quinazolin-2-yl)-1-(1-ethyl-1H-pyrazol-4-yl)cyclohexan-1-ol]	870	6330
